Experimental data taken from the supplement of paper PMC11061612.

Assays:
Assay in all cases: Bliss excess, mean over the matrix (fraction); higher = more synergy
ACHN (Kidney Carcinoma) = test system: ACHN (Kidney Carcinoma)
Procedure, shortened: (§1)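 Bliss excess equals the observed combination effect minus the expected value EA + EB − EA·EB, where EA and EB are the effects of each agent alone. Combination Emax is the second-highest inhibition within the matrix. Inhibition was scaled from CellTiter-Glo 2.0 luminescence, with 0 set by vehicle wells and 1 by blank wells, after 72 hours of two-drug dosing of cells plated in 1536-well plates.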

[1] = test system: AMO-1 (Plasma Cell Myeloma)
Procedure, shortened: as §1

[2] = test system: BT-549 (Breast Carcinoma)
Procedure, shortened: as §1

[3] = test system: KARPAS-299 (T-Cell Non-Hodgkin's Lymphoma)
Procedure, shortened: as §1

[4] = test system: LU-65 (Non-Small Cell Lung Carcinoma)
Procedure, shortened: as §1

[5] = test system: NCI-H358 (Lung Adenocarcinoma)
Procedure, shortened: as §1

[6] = test system: PANC-04-03 (Pancreatic Carcinoma)
Procedure, shortened: as §1

[7] = test system: RF-48 (B-Cell Non-Hodgkin's Lymphoma)
Procedure, shortened: as §1

[8] = test system: SW13 (Other Solid Carcinomas)
Procedure, shortened: as §1

UACC-62 (Melanoma) = test system: UACC-62 (Melanoma)
Procedure, shortened: as §1

SMILES	Bliss excess (ACHN (Kidney Carcinoma))	Bliss excess [1]	Bliss excess [2]	Bliss excess [3]	Bliss excess [4]	Bliss excess [5]	Bliss excess [6]	Bliss excess [7]	Bliss excess [8]	Bliss excess (UACC-62 (Melanoma))
O=C(c1cc(Cc2n[nH]c(=O)c3ccccc23)ccc1F)N1CCN(C(=O)C2CC2)CC1 [Olaparib] + COc1nnc2ccc(N3CCC(c4ccc(OCCN5CCN(C)C(=O)[C@H]5C)cc4)CC3)nn12 [AZD5153] (first compound max 10 µM, 7x7, partner max 1 µM)	-0.0367	-0.0334	-0.0697	-0.0654	-0.0601	-0.026	-0.0698	-0.0374	-0.0183	0.0387
C=CCn1c(=O)c2cnc(Nc3ccc(N4CCN(C)CC4)cc3)nc2n1-c1cccc(C(C)(C)O)n1 [AZD1775] + CCc1c2c(nc3ccc(O)cc13)-c1cc3c(c(=O)n1C2)COC(=O)[C@]3(O)CC [SN-38] (first compound max 1 µM, partner max 0.3 µM)	-0.0634	-0.052	-0.057	-0.042	-0.0127	-0.0162	-0.0594	-0.0404	0.0119	-0.0497
Cc1c2c(nn1C)CSCc1cc(n(C)n1)CSc1cc(c3ccccc3c1)OCCCc1c(C(=O)O)n(C)c3c-2c(Cl)ccc13 [AZD5991] + CC(=O)O[C@H]1C(=O)[C@@]2(C)[C@H]([C@H](OC(=O)c3ccccc3)[C@]3(O)C[C@H](OC(=O)[C@H](O)[C@@H](NC(=O)c4ccccc4)c4ccccc4)C(C)=C1C3(C)C)[C@]1(OC(C)=O)CO[C@@H]1C[C@@H]2O [Paclitaxel] (first compound max 1 µM, 7x7, partner max 3 µM)	-0.0038	0.0096	0.0124	-0.0693	-0.0944	-0.0405	0.0111	-0.0407	0.0376	0.115
O=C(c1cc(Cc2n[nH]c(=O)c3ccccc23)ccc1F)N1CCN(C(=O)C2CC2)CC1 [Olaparib] + Cc1c2c(nn1C)CSCc1cc(n(C)n1)CSc1cc(c3ccccc3c1)OCCCc1c(C(=O)O)n(C)c3c-2c(Cl)ccc13 [AZD5991] (first compound max 10 µM, 7x7, partner max 1 µM)	-0.0218	-0.0124	-0.0223	0.0202	-0.0452	-0.0513	-0.0554	-0.108	0.0104	-0.0089
O=C(c1cc(Cc2n[nH]c(=O)c3ccccc23)ccc1F)N1CCN(C(=O)C2CC2)CC1 [Olaparib] + CN(CC[C@H](CSC1=CC=CC=C1)NC2=C(C=C(C=C2)S(=O)(=O)NC(=O)C3=CC=C(C=C3)N4CCC(CC4)[C@H](C5=CC=CC=C5C6=CC=C(C=C6)Cl)O)S(=O)(=O)C(F)(F)F)CCO [AZD4320] (first compound max 10 µM, 7x7, partner max 1 µM)	-0.0164	-0.0111	-0.0365	0.109	-0.0739	-0.0383	-0.0555	0.0454	-0.0566	-0.0105
O=C(c1cc(Cc2n[nH]c(=O)c3ccccc23)ccc1F)N1CCN(C(=O)C2CC2)CC1 [Olaparib] + CC1(C)CCC(CN2CCN(c3ccc(C(=O)NS(=O)(=O)c4ccc(NCC5CCOCC5)c([N+](=O)[O-])c4)c(Oc4cnc5[nH]ccc5c4)c3)CC2)=C(c2ccc(Cl)cc2)C1 [Venetoclax] (first compound max 10 µM, 7x7, partner max 1 µM)	-0.0214	-0.0074	-0.0516	0.0277	-0.0323	-0.054	-0.0318	0.118	-0.0309	-0.007
C[C@@H](Oc1cc(-c2cnn(C3CCNCC3)c2)cnc1N)c1c(Cl)ccc(F)c1Cl [Crizotinib] + Cn1cnc2c(F)c(Nc3ccc(Br)cc3Cl)c(C(=O)NOCCO)cc21 [Selumetinib] (first compound max 10 µM, 7x7, partner max 10 µM)	0.0277	0.0122	-0.063	-0.032	0.0003	-0.106	-0.0194	-0.0548	-0.0324	-0.0229
Cc1c2c(nn1C)CSCc1cc(n(C)n1)CSc1cc(c3ccccc3c1)OCCCc1c(C(=O)O)n(C)c3c-2c(Cl)ccc13 [AZD5991] + CS(=O)(=O)CCNCc1ccc(-c2ccc3ncnc(Nc4ccc(OCc5cccc(F)c5)c(Cl)c4)c3c2)o1 [Lapatinib] (first compound max 1 µM, 7x7, partner max 10 µM)	0.0028	0.0149	-0.042	0.0227	0.0232	-0.0019	-0.0275	-0.0917	0.0568	-0.0376
C[C@@H](Nc1cc(F)cc(F)c1)c1cc(C(=O)N(C)C)cc2c(=O)cc(N3CCOCC3)oc12 [AZD8186] + C1CN(CCC1(C(=O)N[C@@H](CCO)C2=CC=C(C=C2)Cl)N)C3=NC=NC4=C3C=CN4 [AZD5363] (first compound max 10 µM, 7x7, partner max 10 µM)	0.04	0.0309	-0.0011	0.0092	-0.0629	-0.0597	-0.0712	-0.033	0.0092	-0.0382
C[C@@H]1COCCN1c1cc(C2([S@](C)(=N)=O)CC2)nc(-c2ccnc3[nH]ccc23)n1 [AZD6738] + Nc1ccn([C@@H]2O[C@H](CO)[C@@H](O)C2(F)F)c(=O)n1 [Gemcitabine] (first compound max 10 µM, 7x7, partner max 0.3 µM)	0.0003	0.0048	-0.0194	0.0607	0.0191	0.07	-0.0244	0.0277	0.0493	0.0114
Cc1c2c(nn1C)CSCc1cc(n(C)n1)CSc1cc(c3ccccc3c1)OCCCc1c(C(=O)O)n(C)c3c-2c(Cl)ccc13 [AZD5991] + Nc1ccn([C@@H]2O[C@H](CO)[C@@H](O)C2(F)F)c(=O)n1 [Gemcitabine] (first compound max 1 µM, 7x7, partner max 0.3 µM)	-0.0455	0.0042	0.0278	-0.0188	-0.0251	-0.0276	-0.0643	0.0014	0.038	-0.0219
Cc1nc(-c2cn3c(n2)-c2ccc(-c4cnn(C(C)(C)C(N)=O)c4)cc2OCC3)n(C(C)C)n1 [Taselisib] + O=C(Nc1ccc2[nH]nc(-c3ccncc3)c2c1)[C@@H]1CCN(CC(=O)N2CCN(c3ccc(-c4ncccn4)cc3)CC2)C1 [SCH772984] (first compound max 10 µM, 7x7, partner max 5 µM)	0.0219	0.133	0.047	0.147	0.214	0.0402	0.0934	0.102	0.334	-0.035
CS(=O)(=O)CCNCc1ccc(-c2ccc3ncnc(Nc4ccc(OCc5cccc(F)c5)c(Cl)c4)c3c2)o1 [Lapatinib] + Cn1cnc2c(F)c(Nc3ccc(Br)cc3Cl)c(C(=O)NOCCO)cc21 [Selumetinib] (first compound max 10 µM, 7x7, partner max 10 µM)	0.0251	0.0408	-0.0473	0.0736	-0.0113	-0.0044	0.0145	-0.0137	0.0429	-0.0119
C=CCn1c(=O)c2cnc(Nc3ccc(N4CCN(C)CC4)cc3)nc2n1-c1cccc(C(C)(C)O)n1 [AZD1775] + Nc1ccn([C@@H]2O[C@H](CO)[C@@H](O)C2(F)F)c(=O)n1 [Gemcitabine] (first compound max 1 µM, partner max 0.3 µM)	-0.0338	0.157	-0.0069	0.0851	-0.0081	-0.0113	-0.0346	-0.005	0.0385	0.0399
C[C@@H]1COCCN1c1cc(C2([S@](C)(=N)=O)CC2)nc(-c2ccnc3[nH]ccc23)n1 [AZD6738] + C1CC(C1)(C(=O)[O-])C(=O)[O-].N.N.[Pt+2] [Carboplatin] (first compound max 10 µM, 7x7, partner max 10 µM)	-0.034	0.0025	-0.0453	-0.0261	-0.0954	-0.091	-0.0682	-0.0788	-0.0051	-0.0289
C[C@@H](Nc1cc(F)cc(F)c1)c1cc(C(=O)N(C)C)cc2c(=O)cc(N3CCOCC3)oc12 [AZD8186] + CC(=O)c1c(C)c2cnc(Nc3ccc(N4CCNCC4)cn3)nc2n(C2CCCC2)c1=O [Palbociclib] (first compound max 10 µM, 7x7, partner max 10 µM)	0.0335	0.126	0.0464	0.0912	-0.0378	-0.0167	0.0107	0.0054	0.044	0.0303
C[C@@H](Oc1cc(-c2cnn(C3CCNCC3)c2)cnc1N)c1c(Cl)ccc(F)c1Cl [Crizotinib] + CC1=C(C(=CC=C1)Cl)NC(=O)C2=CN=C(S2)NC3=CC(=NC(=N3)C)N4CCN(CC4)CCO [Dasatinib] (first compound max 10 µM, 7x7, partner max 2 µM)	0.0041	-0.0368	0.0139	-0.0263	-0.0973	-0.0813	-0.0683	-0.119	-0.0173	-0.0656
CC1(C)CCC(CN2CCN(c3ccc(C(=O)NS(=O)(=O)c4ccc(NCC5CCOCC5)c([N+](=O)[O-])c4)c(Oc4cnc5[nH]ccc5c4)c3)CC2)=C(c2ccc(Cl)cc2)C1 [Venetoclax] + CS(=O)(=O)CCNCc1ccc(-c2ccc3ncnc(Nc4ccc(OCc5cccc(F)c5)c(Cl)c4)c3c2)o1 [Lapatinib] (first compound max 1 µM, 7x7, partner max 10 µM)	-0.0198	0.0614	-0.0573	0.0202	0.0159	-0.0321	-0.0396	0.0123	-0.0672	-0.0044
CN(CCO)CC[C@H](CSc1ccccc1)Nc1ccc(S(=O)(=O)NC(=O)c2ccc(N3CCC([C@@H](O)c4ccccc4-c4ccc(Cl)cc4)CC3)cc2)cc1S(=O)(=O)C(F)(F)F [AZD4320] + CS(=O)(=O)CCNCc1ccc(-c2ccc3ncnc(Nc4ccc(OCc5cccc(F)c5)c(Cl)c4)c3c2)o1 [Lapatinib] (first compound max 1 µM, 7x7, partner max 10 µM)	-0.011	0.0695	-0.0188	0.0265	-0.0043		-0.0143	-0.0184	0.0051	-0.0143
